Measurements taken from patent US10617721B2, “Methods for genetic modification of stem cells” (Ospedale San Raffaele S.R.L., priority 2013, dated 2020).

How the values were obtained:
cord blood CD34^+ cells [1] = assay: Lentiviral vector transduction of cord blood CD34+ cells with or without dmPGE2, VCN by qPCR (in vitro); assay type: cell-based, human
Method: CD34^+ cells from n=4 cord blood donors (Lonza) were thawed and put into culture in Stem span serum free expansion medium (SFEM) supplemented with 100 ng/mL SCF, 100 ng/mL FLT3L, 50 ng/mL TPO, 50 ng/mL IL6 for 18 h (pre-stimulation), in the presence or absence of 10 μM dmPGE2. After pre-stimulation, cells were incubated with 10^8 TU/mL of a lentiviral vector for 24 h. Cells were then cultured in vitro (n=5 replicates) for 14 days in IMDM+10% FCS before vector copy number (VCN) was measured by qPCR as described in Gentner, B. et al. (2009) Nat.

[2] = system: G-CSF-mobilised CD34+ peripheral blood stem cells; assay: Lentiviral vector transduction of G-CSF-mobilised CD34+ peripheral blood stem cells with or without dmPGE2 (in vitro); assay type: cell-based, human; conditions: pre-stimulated with dmPGE2, 18 h
Method: N=6 transductions of 3 mobilised peripheral blood donors. Cells were thawed, resuspended in serum-free, commercial culture medium (e.g. CellGro) at a density of 10^6 cells/mL in the presence of the following cytokines: 300 ng/mL SCF, 300 ng/mL FLT3L, 100 ng/mL TPO, 60 ng/mL IL-3, and prestimulated for 18 h, in the absence (control, Ctrl) or presence of dmPGE2. Transduction was performed with lentiviral vectors (3 different batches) at 10^8 TU/mL for 12-24 h. Vector copy number was assessed by qPCR after 14 days of in vitro culture in IMDM and 10% FCS. Relative VCN (normalised to the Control group) is shown.

human HSPCs = assay: Timing of dmPGE2 stimulation and transducability of human HSPCs by lentiviral vectors; assay type: cell-based
Method: This experiment was carried out on 1 cord blood and 1 mobilised peripheral blood donor, the relative VCN is shown (normalised to its respective control).

cord blood CD34^+ cells [3] = assay: VCN and engraftment after xenotransplantation of dmPGE2-stimulated, LV-transduced cord blood CD34+ cells into NSG mice; assay type: in vivo
Method: Cord blood CD34^+ cells were thawed and placed in culture (10^6 cells/mL) in Stem span serum free medium (SFEM) supplemented with 100 ng/mL SCF, 100 ng/mL FLT3L, 50 ng/mL TPO, 50 ng/mL IL-6 for 18 h (pre-stimulation) and subsequently transduced with a lentiviral vector at 10^8 TU/mL for 24 h. Cells were injected into sublethally irradiated, 8 week old NSG mice (1.5-3×10^5 cells per mouse), and vector copy number (VCN) was analysed in the pooled blood or bone marrow of each group of mice at the indicated time-points using primers specific for human cells. 3 replicate experiments are shown. Left graph: Cells were transduced with a PGK.TRAIL LV, and 10 μM dmPGE2 (dmPGE2 group, n=5 mice) or DMSO (Ctrl group, n=5 mice) was added directly after thawing (t=−16 h with respect to vector addition). Middle graph: Cells were transduced with a PGK.TRAIL LV, and 10 μM dmPGE2 (dmPGE2 group n=5) or DMSO (Ctrl group; n=8) was added 120 min before vector addition (t=−2 h). […], and 10 μM dmPGE2 (dmPGE2 group n=5) or DMSO (Ctrl group; n=5) was added 120 min before vector addition (t=−2 h). In all three experiments, the benefit in transduction observed in vitro was stably maintained long-term, up to 18 weeks after xenotransplantation.

[4] = system: CD34^+ cells from G-CSF mobilised peripheral blood (mPB); assay: VCN in long-term repopulating cells after xenotransplantation of mPB CD34+ cells transduced by protocols P0-P4; assay type: in vivo, NSG mice
Method: CD34^+ cells from G-CSF mobilised peripheral blood (mPB) were thawed and placed in culture (10^6 cells/mL) in CellGro medium supplemented with SCF (300 ng/mL), FLT3L (300 ng/mL), TPO (100 ng/mL) and IL-3 (60 ng/mL). Cells were transduced with third generation lentiviral vectors coding for gp91^phox (vectors suitable for the gene therapy of chronic granulomatous disease) at a dose of 10^8 TU/mL. The different protocols used for ex vivo transduction of mPB CD34+ cells are illustrated in (E) and differ in terms of the presence (P1, P2, P3) or absence (P0, P4) of dmPGE2, the timing of dmPGE2 addition (after thawing: P1, P2; 120 min before transduction: P3) and the duration of culture (24 h: P2, P4 versus 44 h: P0, P1, P3).
(F) 10×10^6 CD34^+ mPB cells from donor 1 were thawed, divided into 4 equal parts and transduced with the SP146/gp91.cogp91^phox. 126T LV from an industry-grade production (Molmed Spa) according to P0, P1, P2 or P3. The outgrowth of 5×10^5 cells put into culture at time zero was injected per mouse (actual numbers: P0 3.66×10^5 per mouse; P1: 4.66×10^5 per mouse; P2: 3.0×10^5 per mouse; P3: 4.86×10^5 per mouse). Mice were euthanised at 20 weeks post transplantation. BM was flushed and pooled from the mice belonging to the same group (P0, P1, P2: n=5 per group; P3: n=3 per group) and depleted for mouse cells. Enriched human cells were then subjected to vector copy number (VCN) analysis using primers specific for human cells (5 technical replicates).
A replicate experiment was performed using mPB CD34^+ cells from a second donor (G). 15×10^6 CD34^+ mPB cells were thawed, divided into 4 equal parts and transduced with the SP146/gp91.gp91^phoxTGT.126T LV (a vector suitable for CGD gene therapy) coming from a lab-grade production according to protocols P0, P1 (44 h−/+dmPGE2) or P4, P2 (24 h−/+dmPGE2). The outgrowth of 9×10^5 cells put into culture at time zero was injected per mouse (actual numbers: P0 10×10^5 per mouse; P1: 8.2×10^5 per mouse; P4: 4.5×10^5 per mouse; P2: 5.3×10^5 per mouse). VCN was analysed on BM cells from each single mouse 13 weeks after transplantation using a qPCR assay specific for human cells.

[5] = system: CD34^+ cells from adult bone marrow; assay: Lentiviral vector transduction of adult bone marrow CD34+, CD34+CD38- and CD34+CD38+ cells with or without dmPGE2; assay type: cell-based, human; conditions: CD34^+ or CD34^+CD38^− HSPC from adult bone marrow after dmPGE2 treatment (10 μM)
Method: The experiments were carried out as follows: CD34^+ cells from N=3 bone marrow donors (Lonza) were thawed and put into culture in Stem span serum free expansion medium (SFEM) under the following conditions: pre-stimulation in 300 ng/mL SCF, 300 ng/mL FLT3L, 100 ng/mL TPO, 60 ng/mL IL3 for 18 h. Cells were then divided into 3 groups: bulk CD34^+, CD34^+CD38^−, CD34^+CD38^+ (FACS-sorted on a MoFlow cytometer after marking with CD38-APC antibody from BD Bioscience). We then added dmPGE2 (10 μM) or DMSO to the cultures, and pre-stimulated the cells for another 16 h before they were transduced with a GFP-expressing lentiviral vector (LV.PGK.GFP) at 10^8 TU/mL. In vitro culture assays were performed, either as liquid culture for 14 days in IMDM+10% FCS (left) or colony forming cell (CFC) assay (right; plated 800 cells/mL methocult, analysed colony outgrowth after 14 d). Vector copy number was assessed by qPCR as described in Gentner B et al. Nat. Methods 2009; 6:63-66.

SMILES: CCCCC(C)(C)[C@H](O)/C=C/[C@H]1[C@H](O)CC(=O)[C@@H]1C/C=C\CCCC(=O)O [dmPGE2, 16,16-dimethyl prostaglandin E2]
- increase in gene transfer (VCN) (cord blood CD34^+ cells [1]; 10 μM dmPGE2 during 18 h pre-stimulation, LV 10^8 TU/mL 24 h, VCN after 14 days culture): 50%
- increased gene transfer efficiency (cord blood CD34^+ cells [1]; CD34^+ or CD34^+CD38^− HSPC from cord blood after dmPGE2 treatment): 1.5 fold
- transduction by lentiviral vectors [2]: more efficient transduction
- increase in VCN (human HSPCs; dmPGE2 added 2 h before LV exposure (t=−2 h), 1 cord blood and 1 mobilised peripheral blood donor): 100%
- VCN increase (human HSPCs; dmPGE2 added at the time of thawing (t=−16 h)): ~50%
- time over which benefit in transduction was stably maintained after xenotransplantation (cord blood CD34^+ cells [3]; 10 μM dmPGE2 at t=−16 h or t=−2 h, three experiments): up to 18 weeks
- engraftment levels (cord blood CD34^+ cells [3]; NSG mice, dmPGE2-treated cells): not negatively affected
- time over which difference in VCN was maintained after transplantation into NSG mice (cord blood CD34^+ cells [3]; after transplantation of dmPGE2-treated cells): more than 4 months
- sustained gain in transduction efficiency in long-term repopulating cells ([4]; P1 condition (dmPGE2 after thawing, 44 h culture), donor 2, BM 13 weeks after transplantation): did not result in a sustained gain in transduction efficiency
- transduction-promoting effect in long-term repopulating cells ([4]; P2 (24 h culture with dmPGE2), donor 2, BM 13 weeks after transplantation): increased transduction well above levels achieved by a 44 h standard protocol
- increase in VCN into long-term repopulating cells ([4]; P2 condition (dmPGE2 after thawing, 24 h culture), donor 1, BM 20 weeks post transplantation): ~50%
- increase in VCN, P3 protocol ([4]; P3 (dmPGE2 120 min before transduction, 44 h culture), donor 1, BM 20 weeks): not statistically significant
- increased gene transfer efficiency [5]: 1.5 fold
